Results as given in ChEMBL document CHEMBL1146994, “Advances toward new antidepressants beyond SSRIs: 1-aryloxy-3-piperidinylpropan-2-ols with dual 5-HT1A receptor antagonism/SSRI activities. Part 5” (Bioorg Med Chem Lett, 2006).
Activity calls are given as the source filed them. The rule behind the calls is not given here.

What was measured:
[1] = system: Rattus norvegicus; assay: Ability to block PCA-induced depletion of 5HT concentration in sc dosed rat brain after 2 hrs; format: functional
[2] = system: Rattus norvegicus; assay: Increase in 5HT level in Sprague-Dawley rat hypothalamus by microdialysis at 20 mg/kg, sc (basal value set at 100%); format: functional; conditions: route subcutaneous
[3] = target: Sodium-dependent serotonin transporter (Rattus norvegicus) (UniProt P31652); assay: Receptor occupancy ex vivo by inhibition of [3H]paroxetine binding to 5HT reuptake site in Sprague-Dawley rat frontal cortex tissue at 30 mg/kg, po relative to control; format: functional, organism-based; parameters: dose 30 mg/kg
Sequence of Sodium-dependent serotonin transporter (Rattus norvegicus) (P31652 whole entry): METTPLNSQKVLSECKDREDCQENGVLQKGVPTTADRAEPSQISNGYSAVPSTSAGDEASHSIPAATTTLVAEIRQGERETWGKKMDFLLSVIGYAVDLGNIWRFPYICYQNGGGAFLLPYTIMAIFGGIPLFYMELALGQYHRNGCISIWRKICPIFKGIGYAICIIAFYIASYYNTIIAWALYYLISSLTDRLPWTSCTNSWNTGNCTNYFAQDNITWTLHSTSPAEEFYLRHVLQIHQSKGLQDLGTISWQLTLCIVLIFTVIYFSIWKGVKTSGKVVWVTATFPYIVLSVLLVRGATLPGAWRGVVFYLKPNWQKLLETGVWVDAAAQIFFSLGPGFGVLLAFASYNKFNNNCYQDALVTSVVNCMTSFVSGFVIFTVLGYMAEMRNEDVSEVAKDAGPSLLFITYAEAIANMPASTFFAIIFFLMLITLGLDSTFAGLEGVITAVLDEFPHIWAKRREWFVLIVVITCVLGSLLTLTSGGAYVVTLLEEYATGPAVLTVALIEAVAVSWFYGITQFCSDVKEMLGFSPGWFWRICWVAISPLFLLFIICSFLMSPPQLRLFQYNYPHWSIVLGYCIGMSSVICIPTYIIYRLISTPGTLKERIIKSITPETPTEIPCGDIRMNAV

[4] = target: Sodium-dependent serotonin transporter (Homo sapiens, UniProt P31645); assay: Displacement of [3H]paroxetine from 5HT reuptake site
Sequence of Sodium-dependent serotonin transporter (P31645 whole entry): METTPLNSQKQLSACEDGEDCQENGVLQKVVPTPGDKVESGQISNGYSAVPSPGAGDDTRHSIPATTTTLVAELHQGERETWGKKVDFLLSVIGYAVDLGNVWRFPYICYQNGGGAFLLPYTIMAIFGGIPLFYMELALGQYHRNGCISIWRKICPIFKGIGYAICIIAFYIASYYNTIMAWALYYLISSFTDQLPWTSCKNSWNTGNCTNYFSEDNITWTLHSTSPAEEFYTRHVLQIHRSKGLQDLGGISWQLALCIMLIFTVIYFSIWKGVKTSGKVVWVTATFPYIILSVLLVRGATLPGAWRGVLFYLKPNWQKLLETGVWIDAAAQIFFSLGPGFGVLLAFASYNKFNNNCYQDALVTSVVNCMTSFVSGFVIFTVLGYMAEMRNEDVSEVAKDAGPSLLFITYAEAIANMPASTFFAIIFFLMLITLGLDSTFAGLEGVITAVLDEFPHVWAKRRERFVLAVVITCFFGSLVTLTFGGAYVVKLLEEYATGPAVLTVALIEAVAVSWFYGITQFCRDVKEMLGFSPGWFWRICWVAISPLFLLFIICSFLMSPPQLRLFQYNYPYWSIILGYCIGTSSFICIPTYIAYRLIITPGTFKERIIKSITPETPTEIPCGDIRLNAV

[5] = target: T1, 5-hydroxytryptamine receptor 1A (Rattus norvegicus) (UniProt P19327); assay: Receptor occupancy ex vivo by inhibition of [3H]8-OH-DPAT binding to 5HT1A receptor in Sprague-Dawley rat frontal cortex tissue at 30 mg/kg, po relative to control; format: functional, organism-based; parameters: dose 30 mg/kg
T1 sequence (whole entry): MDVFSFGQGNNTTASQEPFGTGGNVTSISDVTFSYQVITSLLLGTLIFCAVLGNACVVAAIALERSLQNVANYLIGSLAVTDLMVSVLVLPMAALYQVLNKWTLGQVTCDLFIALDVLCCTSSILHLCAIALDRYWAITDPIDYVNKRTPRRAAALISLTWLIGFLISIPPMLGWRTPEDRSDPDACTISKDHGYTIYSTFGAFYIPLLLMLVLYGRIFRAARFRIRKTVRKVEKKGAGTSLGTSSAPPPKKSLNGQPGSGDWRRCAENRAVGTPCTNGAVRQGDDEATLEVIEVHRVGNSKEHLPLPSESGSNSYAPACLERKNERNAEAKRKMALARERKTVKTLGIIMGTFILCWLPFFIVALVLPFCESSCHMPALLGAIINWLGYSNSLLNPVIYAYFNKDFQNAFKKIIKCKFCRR

[6] = system: Rattus norvegicus; assay: Ability to block 8-OH-DPAT-induced increase of corticosterone in sc dosed rat serum after 1 hr; format: functional
[7] = system: Rattus norvegicus; assay: Increase in 5HT level in Sprague-Dawley rat hypothalamus by microdialysis at 30 mg/kg, po (basal value set at 100%); format: functional
[8] = system: Rattus norvegicus; assay: Ability to block PCA-induced depletion of 5HT concentration in po dosed rat brain after 2 hrs; format: functional
[9] = system: Rattus norvegicus; assay: Ability to block 8-OH-DPAT-induced increase of corticosterone in po dosed rat serum after 1 hr; format: functional
[10] = system: Rattus norvegicus; assay: Increase in 5HT level in Sprague-Dawley rat hypothalamus by microdialysis at 10 mg/kg, po (basal value set at 100%); format: functional
[11] = system: Rattus norvegicus; assay: Reduction of serotonergic neuron level in dorsal raphe nucleus of anesthetized rat after 3 days of sub-chronic administration at 10 mg/kg/day; format: functional, organism-based
[12] = system: Rattus norvegicus; assay: Increase in 5HT level in Sprague-Dawley rat hypothalamus by microdialysis at 10 mg/kg, ip (basal value set at 100%); format: functional; conditions: route intraperitoneal
[13] = system: Rattus norvegicus; assay: Increase in 5HT level in Sprague-Dawley rat hypothalamus by microdialysis at 20 mg/kg, po (basal value set at 100%); format: functional

| Compound | inhibition [3] [%] | Ki [4] [nM] | inhibition [5] [%] | Activity [7] [%] | ED50 [8] [mg/kg] | ED50 [9] [mg/kg] | other results |
| --- | --- | --- | --- | --- | --- | --- | --- |
| C[C@H]1C[C@H](c2cc3ccccc3s2)CCN1C[C@H](O)COc1cccc2[nH]ccc12 | -2 | 0.51 | 1 |  |  |  | ED50 [1]: 0.28 mg/kg; Activity [2]: 264%; ED50 [6]: 2.83 mg/kg |
| C[C@H]1C[C@H](c2cc3ccc(F)cc3s2)CCN1C[C@H](O)COc1cccc2[nH]ccc12 | 8 | 0.31 | 23 | 479 | 0.69 | > 30 | ED50 [6]: 5.08 mg/kg |
| COc1cccc2sc(C3CCN(C[C@H](O)COc4cccc5[nH]ccc45)CC3)cc12 | 100 | 12.6 | 4 |  |  |  |  |
| Cc1cc2c(OC[C@@H](O)CN3CC[C@@H](c4cc5ccccc5s4)C[C@@H]3C)cccc2[nH]1 | 17 |  | 5 |  |  |  | Activity [10]: 119% |
| COc1cccc2sc([C@@H]3CCN(C[C@H](O)COc4cccc5[nH]ccc45)[C@@H](C)C3)cc12 | 11 | 0.27 | 13 | 368 | 3.71 | 21.1 |  |
| COc1cccc2sc([C@@H]3CCN(C[C@H](O)COc4cccc5[nH]ccc45)[C@H](C)C3)cc12 | 70 |  | 28 |  |  |  |  |
| Cc1cc2c(OC[C@@H](O)CN3CC[C@@H](c4cc5cc(F)ccc5s4)C[C@@H]3C)cccc2[nH]1 | 30 | 0.24 | 6 | 315 |  |  |  |
| COc1cccc2sc([C@@H]3CCN(C[C@H](O)COc4cccc5[nH]c(C)cc45)[C@@H](C)C3)cc12 | 26 |  | -3 |  | 3.79 | 3.2 | Activity [11]: inactive; Activity [10]: 713% |
| O[C@H](COc1cccc2[nH]ccc12)CN1CCC(c2cc3ccccc3s2)CC1 | 80 | 16.7 | 6 |  |  |  |  |
| CNCCC(Oc1ccc(C(F)(F)F)cc1)c1ccccc1 (stereo not drawn) [FLUOXETINE] |  |  |  |  |  |  | Activity [11]: Active; Activity [12]: 160% |
| COc1cccc2sc([C@H]3CCN(C[C@H](O)COc4cccc5[nH]ccc45)[C@@H](C)C3)cc12 | 88 | 13.6 | 40 |  |  |  |  |
| Cc1cccc2sc([C@@H]3CCN(C[C@H](O)COc4cccc5[nH]ccc45)[C@@H](C)C3)cc12 | 9 | 0.44 | 20 | 210 | 1.65 | > 30 |  |
| O[C@H](COc1cccc2[nH]ccc12)CN1CCC(c2cc3ccc(F)cc3s2)CC1 | 13 | 1.99 | 9 | 130 |  |  |  |
| COc1ccc2cc([C@@H]3CCN(C[C@H](O)COc4cccc5[nH]ccc45)[C@@H](C)C3)sc2c1 | 29 | 1.1 | 14 | 140 |  |  | ED50 [1]: 1.07 mg/kg |
| COc1cccc2sc([C@H]3CCN(C[C@H](O)COc4cccc5[nH]ccc45)[C@H](C)C3)cc12 | 8 | 1.15 | 33 |  | > 10 | > 30 | Activity [13]: 330% |
| COc1cccc2sc(C3CCN(C[C@H](O)COc4cccc5[nH]c(C)cc45)CC3)cc12 |  | 51.2 |  |  |  |  |  |
| C[C@H]1C[C@H](c2cc3cc(Cl)ccc3s2)CCN1C[C@H](O)COc1cccc2[nH]ccc12 | 39 | 0.58 | 47 |  | 3.65 | 26 | Activity [13]: 287% |
